Results from article PMC7824769, “Identification of Small Molecules Blocking the Pseudomonas aeruginosa Type III Secretion System Protein PcrV” (Biomolecules, 2021).
“And” between values parts separate entries of the source, which are not always exact repeats. Equal values may be shown once.

Key:
[1] = target: PcrV (Pseudomonas aeruginosa, UniProt G3XD49); test: SPR dose-response binding to immobilized PcrV (equilibrium analysis); conditions: for Binding to PcrV in SPR (in words): dose-response SPR
Method: The SPR screening was performed using the ProteOn^TM XPR36 Protein Interaction Array System (Bio-Rad Laboratories Inc., Hercules, CA, USA) with ProteOn GLH sensor chip (Bio-Rad Laboratories Inc., Hercules, CA, USA), and the results were analyzed with the ProteOn Manager software^TM (Bio-Rad Laboratories Inc., Hercules, CA, USA), Excel 2016 (Microsoft Office), and GraphPad Prism 7.04. All SPR experiments were performed at 25 °C. The multichannel module of the ProteOn system was in the vertical position during protein immobilization. The proteins were attached to the surface of a GLH sensor chip via amine coupling chemistry. A buffer scouting was performed to elucidate the optimal binding conditions of PcrV to the GLH sensor chip. First, channels 1–4 on the chip surface were activated using a 1:1 mixture of 40 mM 1-ethyl-3-(3-dimethylaminopropyl)carbodiimide hydrochloride (EDAC) (Bio-Rad Laboratories Inc., Hercules, CA, USA) and 10 mM N-hydroxysulfosuccinimide (sulfo-NHS, Bio-Rad Laboratories Inc., Hercules, CA, USA) for 300 s at 30 µL/min. Next, the proteins PcrV (33,398.6 Da, 6.37 mg/mL) was diluted in 10 mM NaOAc (pH 4, 4.5, and 5) to 0.05 mg/mL. PcrV was immobilized in channel 1–3 for 540 s at 30 µL/min. Channel 4 was flushed with 10 mM NaOAc (pH 5) for 540 s at 30 µL/min. As deactivating agent, a 1:1 mixture of 1 M ethanolamine and milli-Q filtered water was used. The deactivating solution was injected over all four channels for 300 s at 30 µL/min. Phosphate buffered saline with Tween (PBST; 10 mM phosphate buffer pH 7.4, 140 mM NaCl, 2.7 mM KCl, and 0.05% Tween 20) was used as the running buffer. The final amount of immobilized protein was measured in resonance units (RU) relative to the signal of the baseline prior activation. […] Immobilization of PcrV diluted in sodium acetate of pH 4.5 in one channel and of pH 5 in one channel were used in the beginning of the screening procedure (for plate 1–26). Since no difference was found between the two pH values, the PcrV protein was diluted in sodium acetate at pH 5 only (in two channels) from plate 27 and the rest of the screen. The immobilization procedure for the screening was performed as described above with the addition that the control protein carbonic anhydrase isoenzyme II from bovine erythrocytes (CAII, Sigma-Aldrich, article number 2522) was immobilized in one channel that was activated and deactivated as described above. CAII (1 mg/mL in PBS) was deactivated when diluted in 10 mM sodium acetate (pH 4) to 0.05 mg/mL. Immobilization level of the deactivated CAII was 18,000 RU. Deactivated CAII was used as a control protein according to the recommendations by the ProteOn manufacturer (Bio-Rad Laboratories Inc., Hercules, CA, USA). As running buffer, we employed PBS (pH 7.4, 0.05% Tween 20).
First, the PcrV protein was immobilized in two channels as described above while keeping a blank channel which was activated and deactivated as described above. The multichannel module of the ProteOn system was in horizontal position during the small molecule interaction studies. They were serially diluted to (400,) 200, 100, 50, 25, 12.5, 6.25, and (3.125); or 100, 50, 25, and 12.5 µM; or 100, 66.7, 44.4, 29.6, 19.7, and 13.2 µM in PBST (0.05% Tween 20) with a total concentration of 5% DMSO in 96-well plates. The running buffer was PBST (0.05% Tween 20) containing 5% DMSO. The analytes were injected at a flowrate of 100 µL/min, contact time was 60 s, and dissociation time was 60–120 s. Solvent correction was performed continuously during the experiments to account for bulk response of DMSO. The data was then baseline-aligned, processed by channel referencing with the blank channel, and solvent-corrected. The equilibrium dissociation constant (KD) values were determined from equilibrium analysis in the ProteOn Manager software^TM. Solubility problems frequently hampered KD determination since the small molecules could not always be dissolved in concentrations high enough to reach a plateau. […]

[2] = test system: uninfected J774 cells; test: Cell toxicity control: compounds added to uninfected J774 cells; assay type: cell-based; conditions: 6 h incubation; for Toxicity towards eukaryotic cells, 25 µM: compound 25 µM; for Toxicity towards eukaryotic cells, 50 µM: compound 50 µM; for Toxicity towards eukaryotic cells, 100 µM: compound 100 µM; for Toxicity towards eukaryotic cells, 200 µM: compound 200 µM
Method: (§1) The cell viability assay was performed essentially as described before. J774 cells were seeded in 96-well micro-titer plates (Nunc), 100 µL/well, to a final number of 50,000 cells/well in Dulbecco’s modified Eagle’s medium (DMEM) with glutamax (Merck) supplemented with 10% fetal calf serum (FCS) and 3 µg/mL gentamicin and incubated for 16-18 h. Overnight cultures of the P. aeruginosa strains PAK and PAKpcrV [10] were grown in Luria Broth (LB) on a rotary shaker at 220 rpm at 37 °C. Prior to infection, the bacteria were diluted 1:10 in DMEM + glutamax and incubated for 1 h at 37 °C (shaking). The J774 cells were washed once with PBS, then 30 µL of DMEM with glutamax and 10% FCS supplemented with the potential binders at concentrations of 50, 100, 200, and 400 µM were added to the wells in triplicates. The infection was initiated by adding 30 µL of the diluted bacterial solutions (where the OD600 had been diluted to 0.0008) to each well to initiate infection. This infection results in a final bacterial concentration of OD600 = 0.0004 and a multiplicities of infection (MOI) of approximately 8, with final concentrations of the compounds at 25, 50, 100, and 200 µM in 60 µL of DMEM + glutamax and 5% FCS. In the primary screening, the compounds were run at one concentration (100 µM) in duplicates. As an infection control, the wild-type strain PAK with 1% DMSO was added, and as a positive control, PAKpcrV with 1% DMSO was added into four wells each. After 3 h and 30 min, 10 µL of UptiBlue Viable Cell Counting Kit (Interchime, France) was added to all wells. The infection was followed under the light microscope and the fluorescence (excitation 535 nm and emission 595 nm) was measured at 4, 5, and 6 h in a microplate reader (Synergy™ H4, Biotek). The results were calculated as percentage of living cells compared to uninfected control, where the uninfected control was set to 100% living cells and the infected control was set to 0% living cells. As a control, compounds were added to uninfected cells in a parallel experiment and viability was calculated as above to screen for cell toxicity. A compound was considered toxic if the viability was <80% of the uninfected control after 6 h of incubation and if a visual change of cell morphology was observed by microscopy. Z’ was calculated for each plate to ensure good quality throughout the screening. Only results from plates with a Z’ > 0.4 were counted. Standard deviation was calculated with Gaussian approximation when appropriate and shown as error bars in Figure 3C and Figure 4A.

[3] = as above; assay type: cell-based; conditions: mouse, uninfected J774 macrophage cells; read-out: Eukaryotic cell toxicity (viability compared to DMSO control)
Method: as §1

[4] = test system: J774 cells infected with P. aeruginosa strain PAK; test: cells; assay type: cell-based, Pseudomonas aeruginosa; conditions: Pseudomonas aeruginosa, uninfected control = 100%, infected control = 0%; for viability at 25 µM: J774, compound 25 µM, read-out: Viability Assay (% of Uninfected Control) 25 µM; for viability at 50 µM: J774, compound 50 µM, read-out: Viability Assay (% of Uninfected Control) 50 µM; for viability at 100 µM: J774, compound 100 µM, read-out: Viability Assay (% of Uninfected Control) 100 µM; for viability at 200 µM: J774, compound 200 µM
Method: as §1
The T3SS is important for P. aeruginosa infection of eukaryotic cells, and a T3SS activator mutant or a mutant lacking the T3SS tip protein PcrV are not able to infect eukaryotic cells. The macrophage cell line, J774, was infected with the wild-type P. aeruginosa strain PAK, and the potential PcrV binders were added to the wells at a final concentration of 100 µM to screen for inhibition of infection. The T3SS-mediated cytotoxic effect on the eukaryotic cells was measured by using a viability staining method (Uptiblue, Interchim), and the results were measured after 4, 5, and 6 h of infection. The pcrV-mutant (PAKpcrV), which is not able to infect macrophages due to deletion of the PcrV protein, was used as a control.

[5] = KD ± standard error of KD (Table S1), single experiment, standard error from ProteOn Manager software
[6] = SPR KD, equilibrium analysis, mean ± SD of three or more independent experiments, individual values where n < 3, 25 °C, PBST 5% DMSO

PcrV, sequence (G3XD49 entry or part of it): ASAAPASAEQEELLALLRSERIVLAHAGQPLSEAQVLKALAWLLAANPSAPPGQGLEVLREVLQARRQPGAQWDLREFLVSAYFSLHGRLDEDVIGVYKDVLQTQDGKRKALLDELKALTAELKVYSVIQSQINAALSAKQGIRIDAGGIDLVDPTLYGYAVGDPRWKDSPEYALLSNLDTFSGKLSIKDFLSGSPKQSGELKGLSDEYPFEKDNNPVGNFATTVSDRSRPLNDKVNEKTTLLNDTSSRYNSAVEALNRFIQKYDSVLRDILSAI

SMILES | Kd [1, 5] [µM] | Kd [1, 6] | Binding to PcrV in SPR (in words) [1] | Toxicity towards eukaryotic cells, 25 µM [2] | Toxicity towards eukaryotic cells, 50 µM [2] | Toxicity towards eukaryotic cells, 100 µM [2] | Toxicity towards eukaryotic cells, 200 µM [2] | viability at 6 h [3] [%] | viability at 25 µM [4] [%] | viability at 50 µM [4] [%] | viability at 100 µM [4] [%] | viability at 200 µM [4] [%]
CNC(=O)CCCOc1ccc(Br)c(C)c1C [Compound 19] | 177 ± 31.6 | 121 ± 45 µM | improved or similar binding affinity | Toxic ^e (<80% viability compared to the DMSO control) | Toxic ^e (<80% viability compared to the DMSO control) | Toxic ^e (<80% viability compared to the DMSO control) | Toxic ^e (<80% viability compared to the DMSO control) | < 80 | – | – | – | –
Cc1c(Br)ccc(OCCCC(N)=O)c1C [Compound 18] | 32.9 ± 5 | 42 ± 12 µM | improved or similar binding affinity | Toxic ^e (<80% viability compared to the DMSO control) | Toxic ^e (<80% viability compared to the DMSO control) | Toxic ^e (<80% viability compared to the DMSO control) | Toxic ^e (<80% viability compared to the DMSO control) | < 80 | – | – | – | –
Cc1c(Br)ccc(OCCCC(=O)N2CCC(C(=O)O)CC2)c1C [Compound 23] | 94.1 ± 31 | 94 µM and 103 µM | – | – | – | – | b (The compound is toxic^e towards eukaryotic cells, which might affect the results negatively) | – | 17 | 18 | 20 | 9
O=C(O)CCCOc1cc(Cl)ccc1Oc1ccc(Cl)cc1Cl [Compound 17] | – | 536 µM | – | – | – | – | b (The compound is toxic^e towards eukaryotic cells, which might affect the results negatively) | – | 10 | 3 | 7 | -2
Cc1c(Br)ccc(OCCCCO)c1C [Compound 28] | – | 127 µM and 351 µM | – | Toxic ^e (<80% viability compared to the DMSO control) | Toxic ^e (<80% viability compared to the DMSO control) | Toxic ^e (<80% viability compared to the DMSO control) | Toxic ^e (<80% viability compared to the DMSO control) | – | – | – | – | –
O=C(O)CCCOc1ccc(Cl)cc1Cl [Compound 1] | 124 ± 53 | < 127 µM and 95 µM | – | – | – | – | b (The compound is toxic^e towards eukaryotic cells, which might affect the results negatively) | – | 14 | 12 | 21 | 16
Cc1c(Br)ccc(OCCCC(=O)NS(=O)(=O)c2ccccc2)c1C [Compound 27] | 116 ± 18 | 118 ± 62 µM | – | – | – | – | b (The compound is toxic^e towards eukaryotic cells, which might affect the results negatively) | – | 13 | 15 | 25 | -6
Cc1c(Br)ccc(OCCCc2ccccc2C(=O)O)c1C [Compound 30] | 149 ± 27 | 113 ± 31 µM | – | – | – | – | b (The compound is toxic^e towards eukaryotic cells, which might affect the results negatively) | – | 16 | 25 | 21 | -16
